Measurements taken from PubChem BioAssay (NCI).
Where “and” joins values, the source holds several entries; their conditions need not be identical. Equal entries are not always repeated.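 Results reflect a 48-hour exposure of cells in 96-well plates to compound at five concentrations. GI50 is the concentration that inhibits growth by half. At the TGI there is no net growth.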

What was measured:
Experiment in all cases: NCI-60 cell line screen, 48 h
SF-539 CNS = tested on: SF-539 CNS
K-562 leukemia = tested on: K-562 leukemia
NCI-H522 lung = tested on: NCI-H522 lung
HL-60(TB) leukemia = tested on: HL-60(TB) leukemia
SN12C renal = tested on: SN12C renal
NCI-H23 lung = tested on: NCI-H23 lung
HT29 colon = tested on: HT29 colon
MALME-3M melanoma = tested on: MALME-3M melanoma
A498 renal = tested on: A498 renal
DU-145 prostate = tested on: DU-145 prostate

SMILES	TGI (SF-539 CNS)	TGI (K-562 leukemia) [µM]	TGI (NCI-H522 lung)	TGI (HL-60(TB) leukemia)	TGI (SN12C renal) [µM]	TGI (NCI-H23 lung) [µM]	TGI (HT29 colon) [µM]	TGI (MALME-3M melanoma)	TGI (A498 renal)	GI50 (SF-539 CNS) [µM]	GI50 (NCI-H522 lung) [µM]	GI50 (SN12C renal) [µM]	GI50 (NCI-H23 lung) [µM]	GI50 (HT29 colon) [µM]	GI50 (MALME-3M melanoma) [µM]	GI50 (DU-145 prostate) [µM]	TGI (DU-145 prostate) [µM]	GI50 (A498 renal) [µM]	GI50 (K-562 leukemia) [µM]	GI50 (HL-60(TB) leukemia) [µM]
C#CCNC(=O)NCCCCC(NC(=O)OCc1ccccc1)C(=O)OCc1ccccc1 (configuration not stated)	> 100 µM	> 100	54 µM	35.4 µM	> 100	> 100	> 100	> 100 µM	> 100 µM											
O=C(Nc1ccc(F)cc1F)c1cc(Cl)ccc1O	9.9 µM		10.8 µM		8.1	8.27	> 100	4.76 µM	0.902 µM	1.01	0.974	1.29	1.6	3.62	0.782	3	69.6	0.257		
NS(=O)(=O)c1ccc(N2N=C3c4ccccc4CC3C2c2cccs2)cc1 (configuration not stated)	48.1 µM	81.9	> 100 µM		48.9	48.7	> 100			17.4	39.3	23.5	20.3	26.1		14.5	37.7		5.75	
O=c1nc(-c2ccccc2)cc(CC(O)c2ccc(Cl)c(Cl)c2)[nH]1 (configuration not stated)	> 100 µM	> 100	90.8 µM	76 µM	> 100	> 100	> 100	> 100 µM	77.2 µM											
COC(=O)C1=C(CS(=O)c2ccc([N+](=O)[O-])cc2[N+](=O)[O-])C2C=CC1C2 (configuration not stated)	51.2 µM	52.5	27.3 µM	37.2 µM	50.2	98.9	35.2	79.5 µM	> 100 µM											
CCc1cccc(C)c1N1C(=O)C(=O)C(c2nc3ccccc3o2)C(=O)C1=O	> 100 µM	> 100	> 100 µM	> 100 µM	> 100	> 100	> 100	> 100 µM	> 100 µM											
N/C(=N\NS(=O)(=O)c1ccccc1)Oc1ccc(Br)cc1Br	> 100 µM	> 100	> 100 µM	> 100 µM	> 100	> 100	> 100	> 100 µM	> 100 µM											
CC1(c2cc3c(cc2Br)OCO3)SCCCS1	> 100 µM	> 100	7.36 µM	65.9 µM	> 100	45.5	> 100		> 100 µM											
CCc1ccccc1NC(=O)/C=C/c1ccccc1	> 100 µM	> 100	> 100 µM		> 100	> 100	> 100	> 100 µM	> 100 µM								> 100			
COC(=O)CCC12CCC(=O)C1[C@@H](C(=O)OC)C[C@H]2C(=O)OC (some centres not stated)	> 100 µM	> 100	> 100 µM	> 100 µM	> 100	> 100	> 100	> 100 µM	> 100 µM											
Cc1ccc(Oc2ccccc2N)cc1	40.1 µM	> 100		45 µM	> 100	> 100	> 100	> 100 µM	> 100 µM											
NC(=O)[C@@H](CC1CC1)[C@@H](CCC(F)(F)F)C(=O)N[C@H]1N=C(c2ccccc2)c2cccc(F)c2NC1=O	38.9 µM	> 100	> 100 µM	39.1 µM	> 100	> 100	> 100	32.5 µM		17.4	> 100	> 100	> 100	> 100	15.4	> 100	> 100		46.9	11.5
C[Si](C)(C)C(CCCCSc1ccccc1)(Sc1ccccc1)Sc1ccccc1	> 100 µM	> 100		> 100 µM	> 100	> 100			> 100 µM											
CCc1cccc(C)c1NC(=O)CCc1nnc2s/c(=C\c3cccc4ccccc34)c(=O)n12	> 100 µM	> 100	> 100 µM	> 100 µM	> 100	> 100	> 100	> 100 µM	> 100 µM											
Cc1c(C(=O)/C=C/C=C/c2ccccc2)[n+](=O)c2ccccc2n1[O-]	> 100 µM	> 100	32 µM	> 100 µM	73.2	51.4		66.8 µM	> 100 µM											
CC(C)(O)/C=C/C(=O)[C@](C)(O)[C@H]1[C@H](O)C[C@@]2(C)[C@@H]3CC=C4[C@@H](C[C@H](O)C(=O)C4(C)C)[C@]3(C)C(=O)C[C@]12C	0.614 µM and 0.264 µM	37	0.453 µM and 0.775 µM	0.687 µM and 1.68 µM	28	15.5	18.3	0.932 µM	0.244 µM and 0.115 µM	0.217	0.069	0.355	0.462	0.0623				0.0909	0.0608	
Clc1cccc(N2CCN(CCCN3CCc4c([nH]c5ccccc45)C3c3cccnc3)CC2)c1 (configuration not stated)	32.3 µM	> 100	25.7 µM	> 100 µM	30.3	27	14.2	8.97 µM and 21.6 µM	27.2 µM	11.7				3.18	5.78				5.06	4.63
COC(=O)C1C(=O)CC2CCCCC21 (configuration not stated)	> 100 µM	> 100	> 100 µM	> 100 µM	> 100			> 100 µM	> 100 µM											
O=C(O)c1cc(=O)c2c([nH]c3ccccc32)s1		> 100	> 100 µM	> 100 µM	> 100	> 100		> 100 µM												
C[Si](C)(c1ccc(C(=O)O)cc1)c1ccc(C(=O)O)cc1	> 100 µM	> 100	> 100 µM		> 100	> 100	> 100	> 100 µM	> 100 µM								> 100			
CCOC(=O)CN(Cn1cncn1)Cn1cncn1		> 100		> 100 µM	85.3		> 100	> 100 µM												
